Data on 1 compound can be found in paper PMC12022909, “A Multicomponent Reaction-Based Platform Opens New Avenues in Aryl Hydrocarbon Receptor Modulation” (ACS Central Science, 2025).

For the experiment, the target named is T1, AhR (Homo sapiens, UniProt P35869).
T1 construct: Degradation of endogenous AhR was further confirmed via Western blotting and global proteomics measurements in cells treated with 12b; host or cells: MCF7
T1 sequence (P35869 11-848): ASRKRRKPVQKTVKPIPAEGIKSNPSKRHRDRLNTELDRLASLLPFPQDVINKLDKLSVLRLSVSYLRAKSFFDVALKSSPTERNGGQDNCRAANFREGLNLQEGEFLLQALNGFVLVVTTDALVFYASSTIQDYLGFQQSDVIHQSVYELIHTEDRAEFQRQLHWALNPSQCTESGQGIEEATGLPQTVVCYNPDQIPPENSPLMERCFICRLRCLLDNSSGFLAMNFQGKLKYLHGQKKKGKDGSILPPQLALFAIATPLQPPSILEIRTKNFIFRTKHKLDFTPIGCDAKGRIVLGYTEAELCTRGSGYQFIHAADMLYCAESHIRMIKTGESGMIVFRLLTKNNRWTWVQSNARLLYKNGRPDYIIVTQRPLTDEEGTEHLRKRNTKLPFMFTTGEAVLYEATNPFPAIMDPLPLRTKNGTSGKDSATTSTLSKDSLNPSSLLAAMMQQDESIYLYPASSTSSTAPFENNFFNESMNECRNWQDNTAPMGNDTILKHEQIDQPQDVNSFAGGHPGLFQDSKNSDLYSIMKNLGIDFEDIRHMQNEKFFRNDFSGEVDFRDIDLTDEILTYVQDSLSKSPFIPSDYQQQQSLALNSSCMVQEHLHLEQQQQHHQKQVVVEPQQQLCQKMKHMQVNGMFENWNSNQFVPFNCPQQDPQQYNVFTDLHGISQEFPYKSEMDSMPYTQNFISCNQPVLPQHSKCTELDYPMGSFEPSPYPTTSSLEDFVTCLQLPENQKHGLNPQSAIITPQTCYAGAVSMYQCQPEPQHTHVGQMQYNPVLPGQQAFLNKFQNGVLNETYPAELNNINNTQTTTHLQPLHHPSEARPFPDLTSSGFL
As to the kind of experiment: Western blot of AhR in MCF7 cells. The settings on record: 10 µM, 5 h. The format is cell-based. The method, then: Figure S30. Agonists induce degradation of AhR.
12b, 12c, and 12d at a concentration of 10 µM for 5h. The numbers on the Blot indicate the signal intensities of the bands relative to the Tubulin bands, normalized to DMSO treatment as quantified with Empiria Studio. […]
Cell culture and treatment […]
MCF7 cells were purchased from ATCC and grown in DMEM with 10% FCS and 1% penicillin/ streptomycin. […]
All cells were cultivated at 37 °C in a humidified atmosphere containing 5% CO 2.
Tapinarof (MedChemExpress, Monmouth Junction, NJ), benzo[a]pyrene (Sigma-Aldrich, Taufkirchen, Germany), TCDD (Amchro, Hattersheim am Main, Germany) and all compounds synthesized in this study were dissolved in dimethyl sulfoxide (DMSO; Roth). […]
Quantitative real-time PCR […]
• CYP1A1: […] (forward (5'>3')); […] (reverse (5'>3')).
• CYP1B1: […] (forward (5'>3')); […] (reverse (5'>3')).
• CCL26: […] (forward (5'>3')); […] (reverse (5'>3')).
• IL-19: […] (forward (5'>3')); […] (reverse (5'>3')).
• CXCL1: […] (forward (5'>3')); […] (reverse (5'>3')).
• β-actin: […] (forward (5'>3')); […] (reverse (5'>3')). […]
The assay was carried out as described earlier. Luciferase activity was normalized to protein content.
SDS-PAGE/Western blot analysis
Cells were lysed in RIPA buffer on ice and subsequently centrifuged for 15 min at 4 °C at maximum speed. Protein samples were separated by 10% and 12% SDS -polyacrylamide gel electrophoresis and blotted onto PVDF (GE Healthcare, Freiburg, Germany) or Nitrocellulose (BioRad #17 04158) membranes. Blots were blocked with 5% skim milk or bovine serum albumin in TBS -Tween-20 (0.1%) for or Intercept® (TBS) Blocking Buffer (LI -COR Biosciences) 1 h at room temperature and subsequently incubated overnight at 4 °C with primary antibodies. Blots were washed and then incubated for 1 h with a 1:5000 dilution of HRP -conjugated secondary antibodies in 5% bovine serum albumin in TBS -Tween-20 (0.1%) or anti-Mouse (Licor, IRDye® 680RD Goat anti -Mouse IgG, 1:10k dilution) or anti-Rabbit secondary antibody (Licor, IRDye® Goat anti -Rabbit IgG, 1:10k dilution) at room temperature. Bands were visualized using WesternBright ECL HRP substrate (Advansta, San Jose, CA) and a C -DiGit Western Blot Scanner (LI -COR Biotechnology, Lincoln, NE) or a Licor Odyssey CLx imager. Primary antibodies used in this study are as follows. AhR (Cat.No. 83200; Cell Signaling Technology, Leiden, The Netherlands). AIP (Cat.No. sc-59730; Santa Cruz Biotechnology, Dallas, TX). Cul4B (Cat.No. abx004735; Abbexa, Houston, TX). GAPDH (Cat.No. 2118; Cell Signaling Technology). Vinculin (Cat.No. 13901, Cell Signaling Technology). α - Tubulin (Abcam, ab7291, 1:10k dilution).
HaCaT-EV and HaCaT-shAhR cells were treated with either vehicle (DMSO) or 10 µM 12d for 0.5 h and 1 h. […]

As for `Cc1[nH]c2ccccc2c1-c1c2[nH]c3ccccc3c2cc2[nH]c3ccccc3c12` [5e], the AhR receptor proteolysis entry is given as “induced receptor proteolysis”.
